Measurements reported in paper PMC10343475, “Systematic Modification of the Substitution Pattern of the 7-Hydroxy-5-oxopyrazolo[4,3-b]pyridine-6-carboxamide Scaffold Enabled the Discovery of New Ligands with High Affinity and Selectivity for the Cannabinoid Type 2 Receptor” (Molecules, 2023).
Where “and” joins values, the source holds several entries; their conditions need not be identical. Identical values can stand only once. Like-named read-outs stand apart in the source and are kept apart here.

How the values were obtained:
human CB2 receptor [1] = target: T1, human CB2 receptor (Homo sapiens, UniProt P34972); test: Competition binding assay, displacement of [3H]-CP-55,940, CB2R; set-up: logKiCB2 (nM) Exp.: unit not given here
Procedure: (§1) Binding at equilibrium was performed as previously reported. […] All compounds were tested following the procedure described by the manufacturer (Perkin Elmer, Italy). […] Ki values were calculated by applying the Cheng–Prusoff equation to the IC50 values (obtained by GraphPad) for the displacement of the bound radioligand by increasing concentrations of the test compound.

[2] = target: human recombinant CB1 receptor (Homo sapiens, UniProt P21554); test: Competition binding assay, displacement of [3H]-CP-55,940, CB1R
Procedure: as §1

human CB2 receptor [3] = target: T1, human CB2 receptor; test: cAMP Hunter functional assay in NKH-477-stimulated CHO-K1 cells overexpressing CB2R; details: agonist mode / antagonist mode with JWH-133 4 µM challenge
[4] = membranes from HEK cells, [3H]CP-55,940, mean ± SD, at least three experiments in duplicate, read-out: CB2R Ki
[5] = membranes from HEK cells, [3H]CP-55,940, mean ± SD, at least three experiments in duplicate, read-out: CB1R Ki
[6] = CB2R Ki, membranes from HEK cells, [3H]CP-55,940, mean ± SD, at least three experiments in duplicate
[7] = logKiCB2 (nM) Exp., log of experimental Ki

Chain of human recombinant CB1 receptor (P21554 whole entry): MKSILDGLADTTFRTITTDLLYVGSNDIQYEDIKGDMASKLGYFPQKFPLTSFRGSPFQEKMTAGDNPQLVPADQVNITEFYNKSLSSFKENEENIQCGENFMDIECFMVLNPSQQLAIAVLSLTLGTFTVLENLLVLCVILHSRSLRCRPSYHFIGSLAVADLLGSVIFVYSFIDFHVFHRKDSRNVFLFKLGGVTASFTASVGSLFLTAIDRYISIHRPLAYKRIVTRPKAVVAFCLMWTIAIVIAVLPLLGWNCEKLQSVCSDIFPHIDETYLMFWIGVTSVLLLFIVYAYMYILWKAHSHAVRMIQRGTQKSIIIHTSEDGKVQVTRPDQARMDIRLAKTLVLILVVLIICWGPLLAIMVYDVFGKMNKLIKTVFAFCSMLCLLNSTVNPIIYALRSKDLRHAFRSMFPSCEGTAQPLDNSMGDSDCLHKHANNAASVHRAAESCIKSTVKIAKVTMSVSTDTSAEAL
T1 sequence (P34972 whole entry): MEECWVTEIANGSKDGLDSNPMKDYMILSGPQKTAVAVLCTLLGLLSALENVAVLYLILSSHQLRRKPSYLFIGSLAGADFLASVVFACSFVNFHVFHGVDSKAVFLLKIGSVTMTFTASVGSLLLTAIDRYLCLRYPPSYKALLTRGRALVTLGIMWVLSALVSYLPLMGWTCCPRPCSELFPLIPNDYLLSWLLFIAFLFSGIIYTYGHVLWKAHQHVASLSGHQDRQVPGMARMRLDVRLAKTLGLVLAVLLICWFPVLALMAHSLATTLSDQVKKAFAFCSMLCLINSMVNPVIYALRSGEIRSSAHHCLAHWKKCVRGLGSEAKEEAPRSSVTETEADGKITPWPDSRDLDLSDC

Compound	Ki (human CB2 receptor [1]; [4]) [nM]	Ki [2, 5] [µM]	SI (selectivity index for CB2R, Ki(CB1R)/Ki(CB2R)) (human CB2 receptor [1])	Ki (human CB2 receptor [1]; [6])	logKiCB2 (nM) Exp. (human CB2 receptor [1]; log of experimental Ki)	also measured
CCCCn1c(=O)c(C(=O)NC(C)(C)C)c(O)c2nn(C)cc21 [Compound 13, 4-(1-Butyl)-N-(tert-butyl)-7-hydroxy-2-methyl-5-oxo-4,5-dihydro-2H-pyrazolo[4,3-b]pyridine-6-carboxamide]	> 10000	> 10				
CCCCn1c(=O)c(C(=O)NC2CCCC2)c(O)c2nn(C)cc21 [Compound 14, 4-(1-Butyl)-N-cyclopentyl-7-hydroxy-2-methyl-5-oxo-4,5-dihydro-2H-pyrazolo[4,3-b]pyridine-6-carboxamide]	> 10000	> 10				
CCCCn1c(=O)c(C(=O)NC2CCCCCCC2)c(O)c2nn(C)cc21 [Compound 15, 4-(1-Butyl)-N-cyclooctyl-7-hydroxy-2-methyl-5-oxo-4,5-dihydro-2H-pyrazolo[4,3-b]pyridine-6-carboxamide]		> 10	>1107	< 20 nM and 9.03 nM		Ki (human CB2 receptor [1]; [7]): 14.5 nM; Functional behavior at CB2R (human CB2 receptor [3]): antagonist/inverse agonist behavior
CCCCn1c(=O)c(C(=O)Nc2ccc(F)cc2)c(O)c2nn(C)cc21 [Compound 16, 4-(1-Butyl)-N-(4-fluorophenyl)-7-hydroxy-2-methyl-5-oxo-4,5-dihydro-2H-pyrazolo[4,3-b]pyridine-6-carboxamide]	> 10000	> 10				
CCCCn1c(=O)c(C(=O)NCc2ccc(F)cc2)c(O)c2nn(C)cc21 [Compound 17, 4-(1-Butyl)-N-(4-fluorobenzyl)-7-hydroxy-2-methyl-5-oxo-4,5-dihydro-2H-pyrazolo[4,3-b]pyridine-6-carboxamide]	> 10000	> 10				
CCCCn1c(=O)c(C(=O)NC2CCCc3ccccc32)c(O)c2nn(C)cc21 (stereo not shown) [Compound 18, 4-(1-Butyl)-7-hydroxy-2-methyl-5-oxo-N-(1,2,3,4-tetrahydronaphthalen-1-yl)-4,5-dihydro-2H-pyrazolo[4,3-b]pyridine-6-carboxamide]		> 10	>578	< 20 nM and 17.3 nM		Ki (human CB2 receptor [1]; [7]): 24 nM; Functional behavior at CB2R (human CB2 receptor [3]): antagonist/inverse agonist behavior
CCCCn1c(=O)c(C(=O)NC(c2ccccc2)c2ccccc2)c(O)c2nn(C)cc21 [Compound 19, N-Benzhydryl-4-(1-butyl)-7-hydroxy-2-methyl-5-oxo-4,5-dihydro-2H-pyrazolo[4,3-b]pyridine-6-carboxamide]	142 ± 110	> 10	>70		2.15	
CCCCn1c(=O)c(C(=O)N[C@@H](Cc2ccccc2)C(=O)OC(C)(C)C)c(O)c2nn(C)cc21 [Compound 20, tert-Butyl (4-Butyl-7-hydroxy-2-methyl-5-oxo-4,5-dihydro-2H-pyrazolo[4,3-b]pyridine-6-carbonyl)-L-phenylalaninate]	> 10000	> 10				
CC(C)n1c(=O)c(C(=O)NC23CC4CC(CC(C4)C2)C3)c(O)c2nn(C)cc21 [Compound 21, N-(Adamantan-1-yl)-7-hydroxy-4-isopropyl-2-methyl-5-oxo-4,5-dihydro-2H-pyrazolo[4,3-b]pyridine-6-carboxamide]				> 10000 nM		Ki [2]: > 10 µM
CC(C)n1c(=O)c(C(=O)NC23CC4CC(CC(O)(C4)C2)C3)c(O)c2nn(C)cc21 [Compound 22, 7-Hydroxy-N-(1-hydroxyadamantan-3-yl)-4-isopropyl-2-methyl-5-oxo-4,5-dihydro-2H-pyrazolo[4,3-b]pyridine-6-carboxamide]	> 10000	> 10				
CC(C)n1c(=O)c(C(=O)NC2CCCCCCC2)c(O)c2nn(C)cc21 [Compound 23, N-Cyclooctyl-7-hydroxy-4-isopropyl-2-methyl-5-oxo-4,5-dihydro-2H-pyrazolo[4,3-b]pyridine-6-carboxamide]	> 10000	> 10				
CC(C)n1c(=O)c(C(=O)NC2CCCc3ccccc32)c(O)c2nn(C)cc21 (stereo not shown) [Compound 24, 7-Hydroxy-4-isopropyl-2-methyl-5-oxo-N-(1,2,3,4-tetrahydronaphthalen-1-yl)-4,5-dihydro-2H-pyrazolo[4,3-b]pyridine-6-carboxamide]	> 10000	> 10				
CC(C)n1c(=O)c(C(=O)NC(c2ccccc2)c2ccccc2)c(O)c2nn(C)cc21 [Compound 25, N-Benzhydryl-7-hydroxy-4-isopropyl-2-methyl-5-oxo-4,5-dihydro-2H-pyrazolo[4,3-b]pyridine-6-carboxamide]	> 10000	> 10				
COc1ccc(Cn2c(=O)c(C(=O)NC34CC5CC(CC(C5)C3)C4)c(O)c3nn(C)cc32)c(OC)c1 [Compound 27, N-(Adamantan-1-yl)-4-(2,4-dimethoxybenzyl)-7-hydroxy-2-methyl-5-oxo-4,5-dihydro-2H-pyrazolo[4,3-b]pyridine-6-carboxamide]	> 10000	> 10				CB2 receptor affinity in words (human CB2 receptor [1]): completely inactive; melting point: > 270 °C
CCn1cc2c(n1)c(O)c(C(=O)NC13CC4CC(CC(C4)C1)C3)c(=O)n2CC [Compound 33, N-(Adamantan-1-yl)-2,4-diethyl-7-hydroxy-5-oxo-4,5-dihydro-2H-pyrazolo[4,3-b]pyridine-6-carboxamide]	24 ± 15.3	> 10	>416		1.38	melting point: 245 to 247 °C
CCCCn1c(=O)c(C(=O)NC(C)(C)C)c(O)c2nn(CC)cc21 [Compound 34, 4-(1-Butyl)-N-(tert-butyl)-2-ethyl-7-hydroxy-5-oxo-4,5-dihydro-2H-pyrazolo[4,3-b]pyridine-6-carboxamide]	106 ± 18.1	> 10	>95		2.02	
CCCCn1c(=O)c(C(=O)NC23CC4CC(CC(C4)C2)C3)c(O)c2nn(CC)cc21 [Compound 35, N-(Adamantan-1-yl)-4-(1-butyl)-2-ethyl-7-hydroxy-5-oxo-4,5-dihydro-2H-pyrazolo[4,3-b]pyridine-6-carboxamide]		0.102 ± 0.0152	227	< 20 nM and 0.45 nM	−0.35	Functional behavior at CB2R (human CB2 receptor [3]): antagonist/inverse agonist behavior
CCCCn1c(=O)c(C(=O)NC23CC4CC(CC(C4)C2)C3)c(O)c2c1c(C)nn2C [Compound 51, N-(Adamantan-1-yl)-4-(1-butyl)-7-hydroxy-1,3-dimethyl-5-oxo-4,5-dihydro-1H-pyrazolo[4,3-b]pyridine-6-carboxamide]		> 10	>280	35.6 ± 19.5 nM	1.55	melting point: 162 to 165 °C
CCCCCn1c(=O)c(C(=O)NC23CC4CC(CC(C4)C2)C3)c(O)c2c1c(C)nn2C [Compound 52, N-(Adamantan-1-yl)-7-hydroxy-1,3-dimethyl-5-oxo-4-(1-pentyl)-4,5-dihydro-1H-pyrazolo[4,3-b]pyridine-6-carboxamide]		> 10	>293	34.1 ± 4.88 nM	1.53	melting point: 167 to 169 °C
Cc1c2c(nn1C)c(O)c(C(=O)NC13CC4CC(CC(C4)C1)C3)c(=O)n2C(C)C [Compound 53, N-(Adamantan-1-yl)-7-hydroxy-4-isopropyl-2,3-dimethyl-5-oxo-4,5-dihydro-2H-pyrazolo[4,3-b]pyridine-6-carboxamide]	> 10000	> 10				CB2 receptor affinity in words (human CB2 receptor [1]): inactive; melting point: > 260 °C
CCCCn1c(=O)c(C(=O)NC23CC4CC(CC(C4)C2)C3)c(O)c2nn(C)c(C)c21 [Compound 54, N-(Adamantan-1-yl)-4-(1-butyl)-7-hydroxy-2,3-dimethyl-5-oxo-4,5-dihydro-2H-pyrazolo[4,3-b]pyridine-6-carboxamide]		> 10		< 20 nM and 2.16 nM	0.33	melting point: 213 to 216 °C; CB1 receptor activity in words [2]: not active at all
CC(C)n1c(=O)c(C(=O)NC23CC4CC(CC(C4)C2)C3)c(O)c2n[nH]cc21 [Compound 56]	> 10000	> 10				CB2 receptor affinity in words (human CB2 receptor [1]): inactive
C#CCn1ncc2c1c(O)c(C(=O)NC13CC4CC(CC(C4)C1)C3)c(=O)n2C(C)C [Compound 58]			>162	61.8 ± 20.8 nM	1.79	Ki [2]: > 10 µM
C#CCn1cc2c(n1)c(O)c(C(=O)NC13CC4CC(CC(C4)C1)C3)c(=O)n2C(C)C [Compound 59]				> 10000 nM		CB2 receptor affinity in words (human CB2 receptor [1]): inactive; Ki [2]: > 10 µM
CC(C)n1c(=O)c(C(=O)NC23CC4CC(CC(C4)C2)C3)c(O)c2c1cnn2CC#N [Compound 60]	48.5 ± 10.9	> 10	>206		1.68	
CC(C)n1c(=O)c(C(=O)NC23CC4CC(CC(C4)C2)C3)c(O)c2nn(CC(=O)OC(C)(C)C)cc21 [Compound 61]	> 10000	> 10				CB2 receptor affinity in words (human CB2 receptor [1]): inactive
CC(C)n1c(=O)c(C(=O)NC23CC4CC(CC(C4)C2)C3)c(O)c2nn(Cc3ccc(F)cc3)cc21 [Compound 62]	> 10000	> 10				CB2 receptor affinity in words (human CB2 receptor [1]): inactive
